Data published in BigSolDB 2.1.

## N[C@@H](Cc1ccc([N+](=O)[O-])cc1[N+](=O)[O-])C(=O)O
In 1,2-dichloroethane, 273.15 K
  solubility (mole fraction): 2.2e-09
In 1,2-dichloroethane, 283.15 K
  solubility (mole fraction): 8.6e-09
In 1,2-dichloroethane, 293.15 K
  solubility (mole fraction): 3.08e-08
In 1,2-dichloroethane, 303.15 K
  solubility (mole fraction): 1.05e-07
In 1,2-dichloroethane, 313.15 K
  solubility (mole fraction): 3.27e-07
In 1,2-dichloroethane, 323.15 K
  solubility (mole fraction): 9.77e-07
In 1,2-dichloroethane, 333.15 K
  solubility (mole fraction): 2.69e-06
In acetone, 273.15 K
  solubility (mole fraction): 1.58e-06
In acetone, 278.15 K
  solubility (mole fraction): 1.64e-06
In acetone, 283.15 K
  solubility (mole fraction): 1.72e-06
In acetone, 288.15 K
  solubility (mole fraction): 1.91e-06
In acetone, 293.15 K
  solubility (mole fraction): 2.15e-06
In acetone, 298.15 K
  solubility (mole fraction): 2.56e-06
In acetone, 303.15 K
  solubility (mole fraction): 3.06e-06
In acetone, 308.15 K
  solubility (mole fraction): 3.99e-06
In acetone, 313.15 K
  solubility (mole fraction): 5.26e-06
In acetone, 318.15 K
  solubility (mole fraction): 7.14e-06
In acetone, 323.15 K
  solubility (mole fraction): 1.01e-05
In acetone, 328.15 K
  solubility (mole fraction): 1.45e-05
In acetone, 333.15 K
  solubility (mole fraction): 2.19e-05
In ethanol, 273.15 K
  solubility (mole fraction): 3.44e-05
In ethanol, 283.15 K
  solubility (mole fraction): 9.2e-05
In ethanol, 293.15 K
  solubility (mole fraction): 0.000195
In ethanol, 303.15 K
  solubility (mole fraction): 0.00035
In ethanol, 313.15 K
  solubility (mole fraction): 0.00051
In ethanol, 323.15 K
  solubility (mole fraction): 0.000671
In ethanol, 333.15 K
  solubility (mole fraction): 0.000772
In ethanol, 343.15 K
  solubility (mole fraction): 0.00079
In ethanol, 353.15 K
  solubility (mole fraction): 0.000791
In ethyl acetate, 303.15 K
  solubility (mole fraction): 9.1e-09
In ethyl acetate, 313.15 K
  solubility (mole fraction): 1.88e-07
In ethyl acetate, 323.15 K
  solubility (mole fraction): 1.88e-06
In ethyl acetate, 333.15 K
  solubility (mole fraction): 1.12e-05
In ethyl acetate, 343.15 K
  solubility (mole fraction): 3.58e-05
In ethyl acetate, 348.15 K
  solubility (mole fraction): 5.44e-05
In isopropanol, 273.15 K
  solubility (mole fraction): 1.51e-06
In isopropanol, 278.15 K
  solubility (mole fraction): 2.96e-06
In isopropanol, 283.15 K
  solubility (mole fraction): 5.45e-06
In isopropanol, 288.15 K
  solubility (mole fraction): 9.49e-06
In isopropanol, 293.15 K
  solubility (mole fraction): 1.56e-05
In isopropanol, 298.15 K
  solubility (mole fraction): 2.42e-05
In isopropanol, 303.15 K
  solubility (mole fraction): 3.57e-05
In isopropanol, 308.15 K
  solubility (mole fraction): 5.03e-05
In isopropanol, 313.15 K
  solubility (mole fraction): 6.78e-05
In isopropanol, 318.15 K
  solubility (mole fraction): 8.75e-05
In isopropanol, 323.15 K
  solubility (mole fraction): 0.000109
In isopropanol, 328.15 K
  solubility (mole fraction): 0.00013
In isopropanol, 333.15 K
  solubility (mole fraction): 0.00015
In isopropanol, 338.15 K
  solubility (mole fraction): 0.000167
In methanol, 273.15 K
  solubility (mole fraction): 1.5e-05
In methanol, 278.15 K
  solubility (mole fraction): 4.12e-05
In methanol, 283.15 K
  solubility (mole fraction): 9.1e-05
In methanol, 288.15 K
  solubility (mole fraction): 0.000192
In methanol, 293.15 K
  solubility (mole fraction): 0.000365
In methanol, 298.15 K
  solubility (mole fraction): 0.000578
In methanol, 303.15 K
  solubility (mole fraction): 0.000909
In methanol, 308.15 K
  solubility (mole fraction): 0.00123
In methanol, 313.15 K
  solubility (mole fraction): 0.00155
In methanol, 318.15 K
  solubility (mole fraction): 0.00181
In methanol, 323.15 K
  solubility (mole fraction): 0.00196
In methanol, 328.15 K
  solubility (mole fraction): 0.00197
In methanol, 333.15 K
  solubility (mole fraction): 0.00198
In n-butanol, 273.15 K
  solubility (mole fraction): 3.84e-06
In n-butanol, 283.15 K
  solubility (mole fraction): 3.91e-06
In n-butanol, 293.15 K
  solubility (mole fraction): 3.99e-06
In n-butanol, 303.15 K
  solubility (mole fraction): 4.28e-06
In n-butanol, 313.15 K
  solubility (mole fraction): 5.01e-06
In n-butanol, 323.15 K
  solubility (mole fraction): 6.29e-06
In n-butanol, 333.15 K
  solubility (mole fraction): 8.34e-06
In n-butanol, 343.15 K
  solubility (mole fraction): 1.15e-05
In n-butanol, 353.15 K
  solubility (mole fraction): 1.69e-05
In n-butanol, 363.15 K
  solubility (mole fraction): 2.6e-05
In n-propanol, 273.15 K
  solubility (mole fraction): 2.58e-06
In n-propanol, 283.15 K
  solubility (mole fraction): 3.54e-06
In n-propanol, 293.15 K
  solubility (mole fraction): 5.64e-06
In n-propanol, 303.15 K
  solubility (mole fraction): 1.01e-05
In n-propanol, 313.15 K
  solubility (mole fraction): 2.04e-05
In n-propanol, 323.15 K
  solubility (mole fraction): 4.55e-05
In n-propanol, 333.15 K
  solubility (mole fraction): 0.000113
In n-propanol, 343.15 K
  solubility (mole fraction): 0.000294
In n-propanol, 353.15 K
  solubility (mole fraction): 0.000812
In n-propanol, 363.15 K
  solubility (mole fraction): 0.00241
In n-propanol, 368.15 K
  solubility (mole fraction): 0.00424
In sec-butanol, 273.15 K
  solubility (mole fraction): 6.49e-07
In sec-butanol, 283.15 K
  solubility (mole fraction): 6.79e-07
In sec-butanol, 293.15 K
  solubility (mole fraction): 6.92e-07
In sec-butanol, 303.15 K
  solubility (mole fraction): 7.79e-07
In sec-butanol, 313.15 K
  solubility (mole fraction): 9.45e-07
In sec-butanol, 323.15 K
  solubility (mole fraction): 1.23e-06
In sec-butanol, 333.15 K
  solubility (mole fraction): 1.71e-06
In sec-butanol, 343.15 K
  solubility (mole fraction): 2.49e-06
In sec-butanol, 353.15 K
  solubility (mole fraction): 3.87e-06
In sec-butanol, 363.15 K
  solubility (mole fraction): 6.11e-06
In water, 273.15 K
  solubility (mole fraction): 8.5e-08
In water, 283.15 K
  solubility (mole fraction): 1.12e-06
In water, 293.15 K
  solubility (mole fraction): 9.26e-06
In water, 303.15 K
  solubility (mole fraction): 5.12e-05
In water, 313.15 K
  solubility (mole fraction): 0.000189
In water, 323.15 K
  solubility (mole fraction): 0.000523
In water, 333.15 K
  solubility (mole fraction): 0.00107
In water, 343.15 K
  solubility (mole fraction): 0.00166
In water, 353.15 K
  solubility (mole fraction): 0.00193
In water, 363.15 K
  solubility (mole fraction): 0.00198
In water, 368.15 K
  solubility (mole fraction): 0.00201
